Laboratory results published in paper PMC10584170, “Machine learning-based phenotypic imaging to characterise the targetable biology of Plasmodium falciparum male gametocytes for the development of transmission-blocking antimalarials” (PLOS Pathogens, 2023).
Where two headings read alike, the source gives them in different places.

Key:
[1] = system: P. falciparum male gametocytes; assay: P. falciparum Dual Gamete Formation Assay (PfDGFA), male readout (exflagellation); format: cell-based, Plasmodium falciparum NF54; settings: for inhibition at 2 µM: 24h preincubation with gametocytes
Summary of the method: (§1)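 Two sex-specific readouts come from one well: male exflagellation centres recorded by brightfield video right after activation, and female gametes scored by Cy3-anti-Pfs25 fluorescence after 24 h at 28°C.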

[2] = system: calcium-dependent protein kinase 1 (PfCDPK1); settings: cited from earlier work
[3] = system: cyclin-dependent protein kinase 6 (PfPK6); design: method as in PMID 26934697; settings: cited from earlier work
HepG2 cells = assay: HepG2 cytotoxicity counter-screen
[4] = system: P. falciparum male gametocytes; assay: PhIDDLI timecourse assay, compound added at timepoints after triggering male gametogenesis; format: cell-based, Plasmodium falciparum NF54
[5] = system: P. falciparum female gametocytes; assay: P. falciparum Dual Gamete Formation Assay (PfDGFA), female readout (Pfs25-positive female gametes); format: cell-based, Plasmodium falciparum NF54; settings: for inhibition at 2 µM: 24h preincubation with gametocytes
Summary of the method: as §1

[6] = system: P. falciparum protein kinase G (PfPKG); settings: cited from earlier work

CNC(=O)c1ccccc1Nc1nc(Nc2ccc(N3CCN(C)CC3)nc2)ncc1C.Cl [TC11]
Cytotox ratio Pf Male [1]: 13.8
IC50 ([1]; this study, read-out: Pf DGFA IC50 MALE): 250 nM
activity against recombinant PfCDPK1 ([2]; enzymatic assay): active
activity against recombinant PfPK6 [3]: active
Mean TOX (HepG2 cells; mean of the HepG2 TOX50 values): 3.44 µM
cells showing apparent DNA replication ([4]; compound added concurrent with induction, fixed 20 min post-induction, DMSO control 61.4%): 18.6%
effect on exflagellation ([4]; compound added concurrent with triggering male gametogenesis or 2 min later): substantially reduced
amounts of cells showing evidence of DNA replication ([4]; compound added during the first 2 min of male gametogenesis): markedly reduced
effect on exflagellation ([4]; compound added later than 2 min post-induction (up to 10 min)): inhibited exflagellation
Cytotox ratio Pf Female [5]: 0.344

CC(C)(CN)c1nc(-c2ccc(Cl)c(O)c2)c(-c2ccncc2)[nH]1.Cl [TCMDC-140369]
inhibition at 2 µM ([1]; Plasmodium falciparum, average of replicates, read-out: Average inhibition male (%)): 95%
inhibition at 2 µM ([1]; Plasmodium falciparum, replicate R1, read-out: % inhibition male (individual replicates) R1): 96%
inhibition at 2 µM ([1]; Plasmodium falciparum, replicate R2, read-out: % inhibition male (individual replicates) R2): 97.9%
inhibition at 2 µM ([1]; Plasmodium falciparum, replicate R3, read-out: % inhibition male (individual replicates) R3): 95.1%
inhibition at 2 µM ([1]; Plasmodium falciparum, replicate R4, read-out: % inhibition male (individual replicates) R4): 90.9%
IC50 ([1]; Plasmodium falciparum, PfDGFA, 24 h incubation with gametocytes before induction, exflagellation readout, read-out: Male IC50): 910 nM
activity against PfCDPK1 [2]: additional activity
Tox50 (HepG2 cells; cytotoxic activity against HepG2 cells): 17.63 µM
inhibition at 2 µM ([5]; Plasmodium falciparum, average of replicates, read-out: Average inhibition female (%)): 51.4%
inhibition at 2 µM ([5]; Plasmodium falciparum, replicate R1, read-out: % inhibition female (individual replicates) R1): 22.1%
inhibition at 2 µM ([5]; Plasmodium falciparum, replicate R2, read-out: % inhibition female (individual replicates) R2): 80%
inhibition at 2 µM ([5]; Plasmodium falciparum, replicate R3, read-out: % inhibition female (individual replicates) R3): 27.7%
inhibition at 2 µM ([5]; Plasmodium falciparum, replicate R4, read-out: % inhibition female (individual replicates) R4): 75.6%
IC50 ([5]; Plasmodium falciparum, PfDGFA, 24 h incubation with gametocytes before induction, female gamete readout, read-out: Female IC50): 270 nM
PfPKG inhibition [6]: PfPKG inhibitor
